Source: paper PMC13095408, “DBeQ derivative targets vacuolar protein sorting 4 functions in cancer cells and suppresses tumor growth in mice” (The Journal of Pharmacology and Experimental Therapeutics, 2025)

Legend:
U2OS cells = assay: Immunoblot analysis of VPS4- and VCP-mediated pathways (autophagy, ER stress, ERAD); type: cell-based; conditions: 5 μM DBeQ, 0.6 μM CB-5083, 1 μM 4-107, complete media
Description: Whole-cell lysates were prepared in radio-immunoprecipitation buffer (25 mM Tris-HCl, pH 8.0, 150 mM NaCl, 1 mM EDTA, 1% v/v IGEPAL CA-630, 0.5% w/v sodium deoxycholate, and 1% v/v SDS) containing protease (1:250) and phosphatase inhibitor cocktails (1:100) then resolved via SDS-PAGE and probed with the indicated antibodies. Signals were acquired with the Odyssey CLx (LI-COR) for fluorescence or Odyssey XF (LI-COR) for chemiluminescence detection and visualized in Image Studio version 6 (LI-COR).
VPS4 is essential for autophagy and loss of VPS4 function inhibits autophagic flux ([Takahashi et al, 2018]; [Zhen et al, 2019]). Meanwhile, VCP is required for endoplasmic reticulum-associated degradation (ERAD; [Rabinovich et al, 2002]) where VCP inhibition results in the accumulation of ubiquitinated proteins and induction of ER stress ([Weihl et al, 2006]; [Bastola et al, 2016]).

[1] = test system: GFP-CHMP4B-expressing U2OS cells; assay: GFP-CHMP4B accumulation cell-based assay (high-content microscopy)
How it was run: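 GFP-CHMP4B U2OS cells were cultured overnight, stained, then treated in SM with compounds (0.1% DMSO or 0.1% DMSO/0.1% ethanol vehicle final). High-content imaging used a 20× NA .70 objective at set intervals, ≥300 cells/well over 3 fields/well.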

VPS4B [2] = molecular target: T1, VPS4B (Homo sapiens, UniProt O75351); assay: VPS4B ATPase activity, EnzChek Phosphate assay; type: biochemical; design: His tag (pET28a vector-encoded) (N); made in house; host or cells: Escherichia coli BL21(DE3)
T1 sequence (O75351 1-444): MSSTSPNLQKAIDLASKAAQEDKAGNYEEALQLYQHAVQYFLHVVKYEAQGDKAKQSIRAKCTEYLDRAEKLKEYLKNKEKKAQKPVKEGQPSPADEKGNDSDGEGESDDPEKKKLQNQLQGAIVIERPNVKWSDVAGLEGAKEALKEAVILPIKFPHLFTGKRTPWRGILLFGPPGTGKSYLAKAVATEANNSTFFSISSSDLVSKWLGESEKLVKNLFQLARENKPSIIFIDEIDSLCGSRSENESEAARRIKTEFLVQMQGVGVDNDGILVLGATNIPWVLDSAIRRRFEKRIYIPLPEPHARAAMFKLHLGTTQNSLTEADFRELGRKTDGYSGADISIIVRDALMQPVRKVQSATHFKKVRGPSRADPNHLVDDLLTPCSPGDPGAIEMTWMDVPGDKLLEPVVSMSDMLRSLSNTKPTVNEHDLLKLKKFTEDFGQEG
How it was run: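 EnzChek phosphate release (MESG/PNP, 360 nm) with ATPases at 1 μM (diluted stock) in HEPES pH 7.4 buffers with MgCl2, CaCl2, DTT, BSA, Triton; 30 min compound preincubation at RT, started with MgATP, read 20 min at 37 °C. Activity from 5-min linear initial rate, normalized to DMSO; IC50 from Hill slope −1 fit.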

recombinant human VCP [3] = molecular target: T2, recombinant human VCP; assay: VCP ATPase activity, EnzChek Phosphate assay; type: biochemical; conditions: 0.5 μM enzyme
T2 construct: His (N); host or cells: Escherichia coli BL21(DE3)
T2 sequence (P46462 2-806 limits assumed): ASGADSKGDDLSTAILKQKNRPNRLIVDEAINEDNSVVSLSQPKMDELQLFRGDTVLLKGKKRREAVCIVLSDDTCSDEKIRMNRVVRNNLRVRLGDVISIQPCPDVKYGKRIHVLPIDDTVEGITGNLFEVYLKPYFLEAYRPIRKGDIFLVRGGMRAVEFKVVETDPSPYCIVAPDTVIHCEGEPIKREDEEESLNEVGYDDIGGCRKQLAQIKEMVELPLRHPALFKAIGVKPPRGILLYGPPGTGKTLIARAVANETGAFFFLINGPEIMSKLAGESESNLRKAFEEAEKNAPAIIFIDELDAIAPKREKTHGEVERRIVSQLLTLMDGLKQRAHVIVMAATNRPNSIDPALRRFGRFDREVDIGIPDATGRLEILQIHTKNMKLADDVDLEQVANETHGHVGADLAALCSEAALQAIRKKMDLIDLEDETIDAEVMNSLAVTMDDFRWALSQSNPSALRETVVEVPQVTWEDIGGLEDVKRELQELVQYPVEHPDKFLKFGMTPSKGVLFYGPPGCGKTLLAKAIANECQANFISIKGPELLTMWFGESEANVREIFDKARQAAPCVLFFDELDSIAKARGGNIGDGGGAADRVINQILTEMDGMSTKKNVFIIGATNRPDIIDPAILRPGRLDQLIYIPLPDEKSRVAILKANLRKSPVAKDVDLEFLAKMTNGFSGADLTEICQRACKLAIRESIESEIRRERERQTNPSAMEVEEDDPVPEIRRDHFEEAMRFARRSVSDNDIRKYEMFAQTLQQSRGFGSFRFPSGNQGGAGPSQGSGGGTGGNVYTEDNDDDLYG
Description: (§1) VPS4B and VCP ATPase activities were measured using the EnzChek Phosphate assay for the quantification of released phosphate. Assay buffers were based on literature precedents ([Cupido et al, 2019], [2021]) as follows: VPS4B buffer (20 mM HEPES-KOH, pH 7.4, 25 mM KOAc, 2 mM MgCl2, 5 mM (NH4)2SO4, 0.5 mM CaCl2, 2.5 mM DTT, 0.1 mg/mL BSA, 0.005% v/v Triton X-100), VCP buffer (20 mM HEPES-NaOH, pH 7.4, 20 mM NaCl, 10 mM MgCl2, 5 mM (NH4)2SO4, 0.5 mM CaCl2, 2.5 mM DTT, 0.1 mg/mL BSA, 0.005% v/v Triton X-100). In black clear-bottom 384-well plates, 22.5 μL of 5% DMSO or 40× test compounds diluted in the respective assay buffer was added to each well. ATPases were diluted to 1 μM in the respective buffers containing 2× EnzChek Phosphate assay coupling reagents of 400 μM MESG and 2 U of PNP, then 25 μL was added to each well. Plates were mixed at 1000 rpm for 30 minutes at RT while being protected from light. The reaction was initiated by adding 2.5 μL of 20 mM MgATP or water followed by mixing at 1200 rpm for 30 seconds at RT. Plates were measured at 360 nm using a CLARIOstar plate reader (BMG LABTECH) for 20 minutes at 37 °C. ATPase activity was calculated as the amount of phosphate released over a 5-minute interval under linear initial velocity conditions. The remaining ATPase activity was calculated by normalizing compound-treated activity values to the DMSO control. IC50 was calculated by fitting normalized values to a sigmoidal dose-response curve with Hill slope = −1 using Graph Pad Prism 10.0.
(§2) To identify VPS4i, we developed enzyme- and cell-based VPS4 functional assays to serve as VPS4i-screening platforms. For the enzyme-based assay, we used the colorimetric EnzChek Phosphate assay that detects free phosphate with the advantage of continuous measurement of ATP hydrolysis over time. […] Due to the high sequence and structural similarity of AAA-ATPases, we also established a VCP ATPase assay to evaluate hit selectivity. […] For the cell-based assay, our approach was based on how VPS4 inhibition causes the accumulation of ESCRT-III ([Babst et al, 1998]; [Katoh et al, 2003]). We used an N-terminal GFP-tagged CHMP4B reporter system because it is the most abundant ESCRT-III subunit ([Katoh et al, 2004]; [Teis et al, 2008]). Our aim was to test compounds under short-term serum and amino acid starvation to stimulate ESCRT activity for easier detection of inhibitors ([Takahashi et al, 2018], [2019]). […] Overall, we established 2 systems for VPS4i screening, a VPS4B ATPase activity assay and a GFP-CHMP4B accumulation cell-based assay.

recombinant human VCP [4] = molecular target: T3, recombinant human VCP (Rattus norvegicus, UniProt P46462); assay: VCP ATPase activity, EnzChek Phosphate assay; type: biochemical; conditions: screened at 5 µM; mean ± S.D., Supplemental Table 2
T3 construct: His (N); host or cells: Escherichia coli BL21(DE3)
T3 sequence (P46462 2-806 limits assumed): as above
Description: as §1, §2

VPS4B [5] = molecular target: T1, VPS4B; assay: VPS4B cellular thermal shift assay (CETSA); type: cell-based; design: endogenous in cells; host or cells: U2OS; conditions: 5 μM DBeQ, 1 hour, starved U2OS cells
Description: The VPS4B CETSA was performed as previously described with modification ([Jafari et al, 2014]). In 10-cm dishes, near-confluent U2OS cells were rinsed with 1× DPBS and treated with the indicated compounds in acclimatized SM for 1 hour at 37 °C (0.1% DMSO). Cells were trypsinized, pelleted at 300 × g for 5 minutes, and washed with 1× PBS. After repeat pelleting at 300 × g for 5 minutes, the cells were resuspended in 1× PBS with protease inhibitor cocktail (1:250) and aliquoted into PCR strips with 20 μL per tube. PCR strips for each treatment were heated on a temperature gradient for 3 minutes using a thermal cycler (Bio-Rad Laboratories), followed by incubation at RT for 3 minutes. […] To normalize protein loading for SDS-PAGE, the soluble protein concentration of each 37 °C sample was quantified via the Pierce BCA assay ([…]), and a volume equal to 10 μg of protein was used for all samples from the same treatment. […] Signals were acquired with the Odyssey CLx (LI-COR) and quantified via densitometry using Image Studio version 6 (LI-COR). The remaining VPS4B levels were calculated by first obtaining the ratio of VPS4B:ACTB band intensities of each sample and then normalizing these ratios to that of the respective 37 °C sample. […]

[6] = test system: i-shVPS4A-expressing crVPS4B U2OS cells; assay: VPS4 synthetic cell death in i-shVPS4A-expressing crVPS4B cells (YOYO-3); type: cell-based; conditions: 1 μg/mL Dox; 20 μM z-VAD-fmk, 50 μM z-IETD-fmk
Description: To measure caspase activity, cells cultured in white opaque-bottom 384-well plates were incubated in the presence or absence of 1 μg/mL Dox for 24 hours. Caspase-Glo 8 or 3/7 reagent was then added 1:1 and allowed to incubate for 90 minutes at RT followed by luminescence measurement using the CLARIOstar microplate reader (BMG LABTECH). Signals had background luminescence subtracted and then normalized to the respective Dox-untreated i-GFP-expressing parental controls to obtain relative CASP8-like LETDase or CASP3/7-like DEVDase activities. For live-cell quantification, the cells seeded on black clear-bottom 96-well plates were incubated with the indicated compounds (0.1% to 0.3% DMSO final) in the presence of 100 nM YOYO-3, a cell-impermeant DNA-binding fluorescent probe that stains membrane integrity-impaired, dead cells. […] Phase and fluorescence images were obtained at the indicated intervals using the IncuCyte S3 Live-Cell Analysis System (Essen BioScience; 10× objective) and then analyzed using the Cell-by-Cell Analysis module (Essen BioScience; 9600-0031) of IncuCyte S3 Software (Essen BioScience; Version 2019B Rev2). To quantify the percentage of dead GFP-expressing cells, the GFP and YOYO-3 double-positive cell population was divided by the total GFP-positive cell population. […]

Row | Molecule | ER stress (HSPA5, ATF4) (U2OS cells) | autophagy (SQSTM1, LC3-II) (U2OS cells) | accumulation of GFP-CHMP4B ([1]; 2 and 5 μM DBeQ, starved cells, 2 hours) | GFP-CHMP4B (% 4-107) ([1]; screened at 1 µM, mean ± S.D., Supplemental Table 2) | GFP-CHMP4B (% 4-107) ([1]; screened at 1 μM, starvation media, 1 hour, foci intensity per cell normalized to 4-107, mean ± SD, Table 1) | IC50 (VPS4B [2]; 0.5 μM enzyme) | VPS4B ATPase (% DMSO) (VPS4B [2]; remaining ATPase activity, screened at 5 μM, mean ± SD, Table 1) | VPS4B ATPase (% DMSO) (VPS4B [2]; screened at 5 µM, mean ± S.D., Supplemental Table 2) | IC50 (recombinant human VCP [3]) | VCP ATPase (% DMSO) (recombinant human VCP [4]) | change of VPS4B thermal stability (Tagg) (VPS4B [5]) | rescue of VPS4 synthetic cell death [6]
1 | c1ccc(CNc2nc(NCc3ccccc3)c3ccccc3n2)cc1 [DBeQ] | mildly induced ER stress | time-dependently inhibited autophagy | dose-dependent accumulation of GFP-CHMP4B | 8.93 ± 3.51 % 4-107 | 8.93 ± 3.51 % 4-107 | 3.9 ± 1.2 µM | 41.96 ± 7.53 % DMSO | 41.96 ± 7.53 % DMSO | 15.9 ± 4.9 µM | 74.64 ± 6.01 % DMSO | subtle thermal destabilization of VPS4B that was not statistically significant | 
2 | z-IETD-fmk |  |  |  |  |  |  |  |  |  |  |  | partially rescued
3 | z-VAD-fmk |  |  |  |  |  |  |  |  |  |  |  | partially rescued
